{"source": "patent US7682351B2", "about": "“Method for infusing insulin to a subject to improve impaired hepatic glucose processing” (priority 2003, dated 2010)", "format_in_all_cases": "in vivo, human", "key": {"[1]": {"test_system": "type 1 DM patients with nephropathy", "assay": "18-month multi-center controlled study of Chronic Intermittent Intravenous Insulin Therapy (CIIIT) on progression of diabetic nephropathy", "method": "A study was conducted to assess the effects of Chronic Intermittent Intravenous Insulin Therapy (CIIIT) on the progression of diabetic nephropathy in patients with type 1 diabetes mellitus (DM). This 18-month multi-center, prospective, controlled study involved 49 type 1 DM patients with nephropathy who were following the Diabetes Control and Complications Trial (DCCT) intensive therapy (IT) regimen. Of these, 26 patients formed the control group C, which continued on IT, while 23 patients formed the treatment group (T) and underwent, in addition to IT, weekly CIIIT.\nFor all of the above listed examples, after the initial few days of treatment, the patients underwent treatment once a week, each treatment day consisting of three infusions of insulin accompanied by ingestion of carbohydrates. The infusion device used to infuse the insulin was the BIONICA MD-110 pump. Typically there were ten pulses given over a period of one hour, and a rest period of one hour was taken between infusions of insulin. The form in which the carbohydrates were ingested changed from time to time and included eating foods of high glycemic index including but not limited to bread and cake. The patients' circulating glucose was measured once every thirty minutes by the finger stick method currently used by most diabetic patients. […]"}, "[2]": {"test_system": "diabetic patients with neuropathy", "assay": "Case reports: diabetic neuropathy patients treated with the subject method", "text": "(§1) The preferred embodiment of the method for delivering insulin pulses to a patient to improve impaired hepatic glucose processing is as follows. On the morning of the procedure, the patient is preferably seated in a blood drawing chair and a 23 gauge needle or catheter is preferably inserted into a hand or forearm vein to obtain vascular access. However, any system of such access may accomplish the needed result, including indwelling catheters, PICC lines and PORTACATHS. After a short equilibration period, the patient is asked to make a circulating glucose measurement prior to starting the actual infusion of insulin. A steady baseline circulating glucose level is achieved when two identical consecutive measurements taken 5 minutes apart is obtained. It is preferable that patients have circulating glucose levels close to 200 mg/dl prior to using the infusion method. In the case of pregnant diabetic women, however, every attempt is made to keep the maximum circulating glucose level to 150 mg/dl or less.\n(§2) After the circulating glucose measurement has been taken and the patient has the proper circulating glucose starting level, the patient is asked to consume a liquid or food containing glucose. The amount of glucose given to s diabetic patient ranges from 60 to 100 grams, but for small framed people the amount could be as low as 40 grams of glucose. However, the amount of initial glucose given to the patient may vary. Liquid or food containing glucose is consumed by the patient to prevent the patient from becoming hypoglycemic. The preferred liquid or food is GLUCOLA, but any similar type of liquid or high glycemic food, including but not limited to cake and bread, containing glucose may be given to the patient. In a non-diabetic patient more glucose may be required than in the diabetic patient, but the other parameters would remain the same, including the need for a pulsed delivery of insulin.\nPulses of insulin are then administered intravenously at planned intervals of time, usually every six minutes. However other intervals may be used from as low as every three minutes up to every 30 minutes. For diabetic patients the amount of insulin in each pulse is 10-200 milliunits of insulin per kilogram of body weight; for non-diabetic patients the amount of insulin in each pulse is slightly lower. […]\n(§3) For all of the above listed examples, after the initial few days of treatment, the patients underwent treatment once a week, each treatment day consisting of three infusions of insulin accompanied by ingestion of carbohydrates. […] The patients' circulating glucose was measured once every thirty minutes by the finger stick method currently used by most diabetic patients. […]"}, "[3]": {"test_system": "diabetic patients with heart disease", "assay": "Case reports: diabetic heart disease patients treated with the subject method", "text": "as §1\nas §2, with “In a non-diabetic patient more glucose may be required than in the diabetic patient, but the other parameters would remain the same, including the need for a pulsed delivery of insulin.” left out\nas §3"}, "[4]": {"test_system": "diabetic patients with retinopathy", "assay": "Case reports: diabetic retinopathy patients treated with the subject method", "details": "single patients with retinopathy; listed as subject method", "text": "as §1, with “less. […]” for “less.”\nas §3"}, "[5]": {"test_system": "type 2 diabetic patient with diabetes related kidney disease", "assay": "Case report: diabetes related kidney disease (proteinuria) treated with the subject method", "details": "1500 milligrams per 24-hour period before treatment, increasing 500 milligrams/24 hours/year; 5 years of use", "text": "as §1, with “less. […]” for “less.”\nas §3"}, "[6]": {"test_system": "type 2 diabetic male with autonomic neuropathy", "assay": "Case report: elevated blood pressure with autonomic neuropathy treated with the subject method", "details": "200/120 before treatment despite intensive insulin therapy; 5 years of use", "text": "as §1, with “less. […]” for “less.”\nas §3"}, "[7]": {"test_system": "diabetic patients with leg ulcers", "assay": "Case reports: diabetes related leg ulcers treated with the subject method", "details": "ulcers not responding to any available therapy; listed as subject method", "text": "as §1, with “less. […]” for “less.”\nas §3"}, "[8]": {"test_system": "patients suffering from senile dementia", "assay": "Senile dementia in diabetic patients treated with the method (Hepatic Activation)", "text": "as §1\nAfter the circulating glucose measurement has been taken and the patient has the proper circulating glucose starting level, the patient is asked to consume a liquid or food containing glucose. The amount of glucose given to s diabetic patient ranges from 60 to 100 grams, but for small framed people the amount could be as low as 40 grams of glucose. […]"}, "[9]": {"details": "type 1 person with severe neuropathy, Example 14"}}, "note": "“Also recorded” adds a separate entry of the source.", "data": [{"substance": "insulin", "values": [{"measurement": "effect on progression of diabetic nephropathy (conclusion)", "setting": "[1]; CIIIT added to IT in type 1 DM patients with overt nephropathy", "result": "markedly reduce the progression of diabetic nephropathy"}, {"measurement": "rate of creatinine clearance (CrCl) decline", "setting": "[1]; T group (n=23): DCCT intensive therapy (IT) plus weekly CIIIT, 18 months, control group C on IT alone 7.69±1.88 ml/min/yr, P=0.0343", "result": "2.21±1.62", "unit": "ml/min/yr"}, {"measurement": "neuropathic pain after treatment", "setting": "[2]; single patients with polyneuropathy / painful peripheral neuropathy, weekly treatment, listed as subject method", "result": "pain has been reduced to the point where the person enjoys rigorous exercise; also recorded: no longer takes pain medication and has no twinges of pain in their legs; also recorded: pain had subsided to the point where they no longer used a wheelchair"}, {"measurement": "gastroparesis after treatment", "setting": "[2]; [9]", "result": "gastroparesis was reversed"}, {"measurement": "numbness in legs after treatment", "setting": "[2]; [9]", "result": "numbness in their legs has gone away"}, {"measurement": "autonomic neuropathy symptoms after treatment (overall disease state)", "setting": "[2]; type 1 person, bed-ridden with autonomic neuropathy before treatment, two years of use", "result": "reversed all of the diseases to the point where they have taken themself off disability"}, {"measurement": "cardiac clinical outcome after treatment", "setting": "[3]; single patients with diabetes related heart disease, listed as subject method", "result": "no longer required a heart transplant; also recorded: could withstand 4-vessel by-pass surgery; also recorded: condition improved to the point where the doctors performed two instead of one grafts"}, {"measurement": "daily insulin intake after treatment", "setting": "[3]; type 2 patient with dilated cardiomyopathy, 150 units a day before treatment", "result": "24-26 units/day"}, {"measurement": "ejection fraction after treatment", "setting": "[3]; type 2 patient with severe dilated cardiomyopathy, 14-19% before treatment, 10 years of treatment", "result": "29-32%"}, {"measurement": "eyesight / retinal outcome after treatment", "setting": "[4]", "result": "eyesight improved to the point where night driving was no longer a concern; also recorded: the bleeding stopped, and there was no further deterioration of the retina"}, {"measurement": "proteinuria after treatment", "setting": "[5]", "result": "600-800 milligrams/24 hours"}, {"measurement": "blood pressure after treatment", "setting": "[6]", "result": "120/80"}, {"measurement": "leg ulcer outcome after treatment", "setting": "[7]", "result": "ulcers on their second leg healed; also recorded: ulcers healed and have never returned"}, {"measurement": "dementia symptoms after treatment", "setting": "[8]; listed as Hepatic Activation", "result": "significant improvement in their motor skills, memory, and cognitive function"}, {"measurement": "dementia symptoms after treatment", "setting": "[8]; listed as present invention", "result": "clearly shown improvement in confusion, weakness, disorientation, cognitive function and lack of memory"}]}]}
